≈ marks a conversion by molar mass, not a printed value.
Assays:
B. cepacia = experiment: Biofilm growth assay, Burkholderia cepacia; format: cell-based; conditions: Table 6, n = 10 isolates; M9 salts, 0.7% citrate, 0.4% Noble agar
Description: The biofilm growth assay was carried out to measure swarming or biofilm spreading on semi-solid agar media in round plates (for example, 100×15 mm), also referred to as Petri dishes. For E. coli, the plates contained LB medium with 0.6% agar and 0.5% glucose. P. aeruginosa plates were made with M8 agar supplemented with 0.2% glucose, 100 μM CaCl2, 1 mM MgSO4, and 0.5% Casamino acids. The agar plates of this assay consisted of 0.4% to 0.7% agar (Bacto or Noble agar), although other media may also be used as described in the literature and known to those skilled in the art. Test compounds at the desired concentration were added to the cooled, autoclaved media. Portions of the media were then poured into the plates (20 mL/plate), and the plates allowed to dry at room temperature for approximately 3 to 4 hours. Alternatively, however, plates may be dried in a laminar flow hood for approximately fifteen to twenty minutes. Overnight cultures were grown in a 37° C. shaker in LB (E. coli) or TSB (P. aeruginosa). Plates were inoculated by placing 5 μL of the appropriate overnight culture in the centers of the plates. The plates then were incubated overnight at 37° C. The area of the zone of spreading bacteria was then measured and replicates are averaged. Percent inhibition was calculated as 100×(area without compound−area with compound)/(area without compound). […] A > (“greater than” symbol) as used in Table 1 is well understood to those skilled in the art as an indication that the listed concentration was not effective at this concentration.
(§1) Table 6, below, lists the inhibitory concentrations of select compounds and antibiotics in the biofilm growth assay against various gram-negative bacterial biofilms. “N” means the number of isolates of bacteria tested. The biofilm growth assay procedure detailed in Example I, above, was followed. Burkholderia cepacia used media consisting of M9 salts, 100 μM CaCl2, 1 mM MgSO4, and 0.7% citrate in 0.4% Noble agar. Salmonella spp. used media consisting of Nutrient Broth with 0.5% glucose in 0.5% Noble agar.

Salmonella spp. = experiment: Biofilm growth assay, Salmonella spp.; format: cell-based; conditions: Table 6, n = 6 isolates; Nutrient Broth, 0.5% glucose, 0.5% Noble agar
Description: The biofilm growth assay was carried out to measure swarming or biofilm spreading on semi-solid agar media in round plates (for example, 100×15 mm), also referred to as Petri dishes. For E. coli, the plates contained LB medium with 0.6% agar and 0.5% glucose. P. aeruginosa plates were made with M8 agar supplemented with 0.2% glucose, 100 μM CaCl2, 1 mM MgSO4, and 0.5% Casamino acids. The agar plates of this assay consisted of 0.4% to 0.7% agar (Bacto or Noble agar), although other media may also be used as described in the literature and known to those skilled in the art. Test compounds at the desired concentration were added to the cooled, autoclaved media. Portions of the media were then poured into the plates (20 mL/plate), and the plates allowed to dry at room temperature for approximately 3 to 4 hours. Alternatively, however, plates may be dried in a laminar flow hood for approximately fifteen to twenty minutes. Overnight cultures were grown in a 37° C. shaker in LB (E. coli) or TSB (P. aeruginosa). Plates were inoculated by placing 5 μL of the appropriate overnight culture in the centers of the plates. The plates then were incubated overnight at 37° C. The area of the zone of spreading bacteria was then measured and replicates are averaged. Percent inhibition was calculated as 100×(area without compound−area with compound)/(area without compound). An active compound was considered that which reduces the area of the spreading biofilm compared to negative controls by greater than or equal to 85%. The values shown in Table 1 are the concentrations of compounds (μg/ml) tested in the biofilm growth assay that reduce the area of the spreading biofilm compared to negative controls by greater than or equal to 85% unless noted differently in Table 1. A > (“greater than” symbol) as used in Table 1 is well understood to those skilled in the art as an indication that the listed concentration was not effective at this concentration.
as §1

P. aeruginosa biofilms [1] = experiment: Biofilm growth assay (spreading biofilm on semi-solid agar), P. aeruginosa; format: cell-based; parameters: P. aeruginosa (n = 10) inhibitory concentration in the biofilm growth assay: unit: ug/mL; conditions: for P. aeruginosa (n = 10) inhibitory concentration in the biofilm growth assay: Table 6, n = 10 isolates; for IC85: Pseudomonas aeruginosa, biofilm growth assay, vs negative controls, Tables 1-5, read-out: P. aeruginosa: concentration that reduces the area of the spreading biofilm by greater than or equal to 85%
In short: (§2)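 Compound added to semi-solid agar: M8 with 0.2% glucose, 100 μM CaCl2, 1 mM MgSO4, 0.5% Casamino acids (P. aeruginosa) or LB with 0.6% agar, 0.5% glucose (E. coli). Center-inoculated with 5 μL overnight culture, incubated overnight at 37 °C; value is concentration (μg/ml) reducing spreading area ≥85% versus negative controls.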

E. coli biofilms = experiment: Biofilm growth assay (spreading biofilm on semi-solid agar), E. coli; format: cell-based; parameters: E. coli (n = 10) inhibitory concentration in the biofilm growth assay: unit: ug/mL; conditions: for E. coli (n = 10) inhibitory concentration in the biofilm growth assay: Table 6, n = 10 isolates; for IC85: Escherichia coli, biofilm growth assay, overnight 37° C., vs negative controls, Tables 1-5, read-out: E. coli: concentration that reduces the area of the spreading biofilm by greater than or equal to 85%
In short: as §2

Xanthomonas campestris = experiment: Biofilm growth assay, plant pathogen Xanthomonas campestris; format: cell-based; conditions: M8 salts, 0.7% glucose, 0.5% Noble agar, 30° C., 24 to 48 hours
cysB = conditions: as described in U.S. Pat. No. 7,604,978; cited from earlier work
P. aeruginosa biofilms [2] = experiment: Biofilm Growth Assay with compound in half of the agar and antibiotic disks; format: cell-based; conditions: 0.125 μg/ml in agar with colistin 10 μg disks
Description: The Biofilm Growth Assay as described in Example VII was performed in round plates with the compounds of the invention in agar on half of the plate and antibiotic disks placed onto the agar containing the compounds of the invention.
The Biofilm Growth Assay was performed as described in Example VIII. 2 to 4 antibiotic disks were placed onto the agar containing a compound of the invention in a line parallel to the line that separates the two agars in one round plate. Appropriate negative and positive control plates were performed as known to those skilled in the art.

Pseudomonas syringae = experiment: Biofilm growth assay, plant pathogen Pseudomonas syringae; format: cell-based; conditions: M8 salts, 0.7% glucose, 0.5% Noble agar, 30° C., 24 to 48 hours
[3] = system: Pectobacterium atrosepticum; experiment: Biofilm growth assay, plant pathogen Pectobacterium atrosepticum; format: cell-based; conditions: M8 salts, 0.7% glucose, 0.5% Noble agar, 30° C., 24 to 48 hours
Evaluation of salts = format: physicochemical
Description: Evaluation of Compound 62 (Table 4) salt formation was performed. […] As stated herein, the invention also includes compounds and their salts. Evaluation of Compound 64 (Table 4) salt formation was performed. HCl (mono and bis), p-TSA (bis), BSA (bis), MSA (bis), H2SO4 (mono), and H3PO4 (mono) provided salts with crystallinity. […] As stated herein, the invention also includes compounds and their salts.

CC[C@H]1OC(=O)[C@H](C)[C@@H](O[C@H]2C[C@@](C)(OC)[C@@H](O)[C@H](C)O2)[C@H](C)[C@@H](O[C@@H]2O[C@H](C)C[C@H](N(C)C)[C@H]2O)[C@](C)(O)C[C@@H](C)CN(C)[C@H](C)[C@@H](O)[C@]1(C)O [Azithromycin, azithromycin]
B. cepacia (n = 10) inhibitory concentration in the biofilm growth assay (B. cepacia): >16
Salmonella spp. (n = 6) inhibitory concentration in the biofilm growth assay (Salmonella spp.): >16
P. aeruginosa (n = 10) inhibitory concentration in the biofilm growth assay (P. aeruginosa biofilms [1]): >16

CC(C)(O/N=C(\C(=O)N[C@@H]1C(=O)N2C(C(=O)[O-])=C(C[n+]3ccccc3)CS[C@H]12)c1csc(N)n1)C(=O)O [Ceftazidime, ceftazidime, reference compound]
B. cepacia (n = 10) inhibitory concentration in the biofilm growth assay (B. cepacia): >8
Salmonella spp. (n = 6) inhibitory concentration in the biofilm growth assay (Salmonella spp.): 0.5
E. coli (n = 10) inhibitory concentration in the biofilm growth assay (E. coli biofilms): 0.25
P. aeruginosa (n = 10) inhibitory concentration in the biofilm growth assay (P. aeruginosa biofilms [1]): 4

CC1(C)CC[C@]2(C(=O)O)CC[C@]3(C)C(=CCC4[C@@]5(C)Cc6c(n[nH]c6N)C(C)(C)[C@@H]5CC[C@]43C)[C@@H]2C1 (stereo partly drawn) [Compound 1, (4aS,6aS,6bR,13aR)-12-Amino-2,2,6a,6b,9,9,13a-heptamethyl-2,3,4,4a,5,6,6a,6b,7,8,8a,9,11,13,13a,13b,14,15b-octadecahydro-1H-chryseno[1,2-f]indazole-4-a-carboxylic acid]
B. cepacia (n = 10) inhibitory concentration in the biofilm growth assay (B. cepacia): 0.25
concentration inhibiting the spreading biofilm of Xanthomonas campestris (Xanthomonas campestris): 0.5 µg/mL
Salmonella spp. (n = 6) inhibitory concentration in the biofilm growth assay (Salmonella spp.): 1
modulation of cysB and genes under its control (cysB): modulates cysB and genes under its control
IC85 (E. coli biofilms): 1 µg/mL (≈ 2.03 µM)
E. coli (n = 10) inhibitory concentration in the biofilm growth assay (E. coli biofilms): 1
growth of the spreading P. aeruginosa biofilm (FIG. 1) (P. aeruginosa biofilms [1]; 0.5 μg/ml in agar, overnight 37° C.): prevented the growth
optimal working concentration (P. aeruginosa biofilms [1]; P. aeruginosa biofilm growth assay (FIG. 2 legend)): 0.5 µg/mL
IC85 (P. aeruginosa biofilms [1]; overnight 37° C.): 0.5 µg/mL (≈ 1.01 µM)
P. aeruginosa (n = 10) inhibitory concentration in the biofilm growth assay (P. aeruginosa biofilms [1]): 1
combination with colistin at preventing the growth of P. aeruginosa biofilms (FIG. 2) (P. aeruginosa biofilms [2]): synergistic
concentration inhibiting the spreading biofilm of Pseudomonas syringae (Pseudomonas syringae): 0.03 µg/mL
concentration inhibiting the spreading biofilm of Pectobacterium atrosepticum [3]: 0.06 µg/mL

CC1(C)CC[C@]2(C(N)=O)CC[C@]3(C)C(=CCC4[C@@]5(C)Cc6c(n[nH]c6N)C(C)(C)[C@@H]5CC[C@]43C)[C@@H]2C1 (stereo partly drawn) [Compound 62, (4aS,6aS,6bR,13aR)-12-Amino-2,2,6a,6b,9,9,13a-heptamethyl-2,3,4,4a,5,6,6a,6b,7,8,8a,9,11,13,13a,13b,14,15b-octadecahydro-1H-chryseno[1,2-f]indazole-4-a-carboxamide]
physical properties of salts compared to freebase (Evaluation of salts; p-toluenesulfonic acid (mono) and H3PO4 (bis) salts): most desirable physical properties
IC85 (E. coli biofilms): 1 µg/mL (≈ 2.03 µM)
IC85 (P. aeruginosa biofilms [1]; overnight 37° C.): 1 µg/mL (≈ 2.03 µM)

CN(C)C[C@]12CCC(C)(C)C[C@H]1C1=CC[C@@H]3[C@@]4(C)Cc5c(n[nH]c5N)C(C)(C)[C@@H]4CC[C@@]3(C)[C@]1(C)CC2 [Compound 64]
aqueous solubility of salts compared to freebase (Evaluation of salts; Bis-MSA and mono-H3PO4 salts): increased aqueous solubility
IC85 (E. coli biofilms): 1 µg/mL (≈ 1.97 µM)
IC85 (P. aeruginosa biofilms [1]; overnight 37° C.): 0.5 µg/mL (≈ 0.987 µM)

NC[C@H]1O[C@H](O[C@H]2[C@H](O)[C@@H](O[C@H]3O[C@H](CO)[C@@H](O)[C@H](N)[C@H]3O)[C@H](N)C[C@@H]2N)[C@H](N)C[C@@H]1O [Tobramycin, tobramcyin, reference compound]
B. cepacia (n = 10) inhibitory concentration in the biofilm growth assay (B. cepacia): >64
Salmonella spp. (n = 6) inhibitory concentration in the biofilm growth assay (Salmonella spp.): 8
E. coli (n = 10) inhibitory concentration in the biofilm growth assay (E. coli biofilms): 16
P. aeruginosa (n = 10) inhibitory concentration in the biofilm growth assay (P. aeruginosa biofilms [1]): 4

From patent US8324264B1, “Inhibitors of bacterial biofilms and related methods” (Sequoia Sciences, Inc., priority 2011, dated 2012)
